Laboratory results from the NIST ThermoML archive (doi:10.1016/j.jct.2017.03.004).

How the values were obtained:
[1] = for viscosity / mass density: 101 kPa, Liquid; for viscosity: Falling or rolling sphere viscometry; for mass density: Vibrating tube method
[2] = activity coefficient (dimensionless); of the first substance listed, at infinite dilution; xn = mol fraction of the nth substance listed; conditions: 101.33 kPa, Liquid, Chromatography, x1 = 0

N#C[N-]C#N.OCCC[n+]1ccccc1 [N-(3-hydroxypropyl)pyridinium dicyanamide]
[1]
Conditions	mass density [kg/m3]	viscosity [mPa·s]
298.15 K	1171.01	115
303.15 K	1167.78	–
308.15 K	1164.58	70.8
313.15 K	1161.4	–
318.15 K	1158.23	47.1
323.15 K	1155.09	–
328.15 K	1151.97	32.9
333.15 K	1148.86	–
338.15 K	1145.77	23.4
343.15 K	1142.69	–
348.15 K	1139.63	17.8
353.15 K	1136.59	–
358.15 K	1133.57	14
363.15 K	1130.58	–
368.15 K	1127.62	–

Conditions	Glass transition temperature [°C]
[1], Glass, DSC	-81

CCCCO [butan-1-ol] + N#C[N-]C#N.OCCC[n+]1ccccc1
[2]
Conditions	activity coefficient
318.15 K	3.29
328.15 K	3.23
338.15 K	3.18
348.15 K	3.13
358.15 K	3.09
368.15 K	3.05

COC(C)=O [methyl ethanoate] + N#C[N-]C#N.OCCC[n+]1ccccc1
[2]
Conditions	activity coefficient
318.15 K	3.28
328.15 K	3.43
338.15 K	3.56
348.15 K	3.71
358.15 K	3.84
368.15 K	3.98

C1CCCCC1 [cyclohexane] + N#C[N-]C#N.OCCC[n+]1ccccc1
[2]
Conditions	activity coefficient
298.15 K	118
308.15 K	111
318.15 K	105
328.15 K	99.8
338.15 K	95
348.15 K	90.7
358.15 K	86.9

CCCCCCCCCC [decane] + N#C[N-]C#N.OCCC[n+]1ccccc1
[2]
Conditions	activity coefficient
298.15 K	2100
308.15 K	1900
318.15 K	1730
328.15 K	1580
338.15 K	1450
348.15 K	1340
358.15 K	1240
